Among the data in ChEMBL document CHEMBL1155181, “Structure-based design of substituted biphenyl ethylene ethers as ligands binding in the hydrophobic pocket of gp41 and blocking the helical bundle formation” (Bioorg Med Chem Lett, 2009) are IC50 and inhibition values, retold here.

Experiment [1] in a line: Inhibition of HIV gp41 hexamer bundle formation by ELISA. Also on record: species or system Human immunodeficiency virus.
Experiment [2] in a line: Inhibition of HIV gp41 hexamer bundle formation after 30 mins by SEC-HPLC assay. Further details: species or system Human immunodeficiency virus; call rule not given here.
In experiment [3] the test system is Human immunodeficiency virus. Kind of experiment: Inhibition of HIV gp41 hexamer bundle formation at 50 uM after 30 mins by size exclusion chromatography assay.
Experiment [4] is described as follows: Inhibition of HIV gp41 hexamer bundle formation after 30 mins by size exclusion chromatography assay. Further details: species or system Human immunodeficiency virus.
Experiment [5] has as its system Human immunodeficiency virus. Kind of experiment: Inhibition of HIV gp41 six-helix bundle formation at 25 uM by FRET-based assay relative to C18Aib.
Experiment [6] relates to Human immunodeficiency virus. Kind of experiment: Inhibition of HIV gp41 six-helix bundle formation at 25 uM by FRET-based assay relative to ADS--J1.

Molecules are shown by their SMILES.

On to `O=C(O)c1ccc(-c2c3nc(c(-c4ccc(C(=O)O)cc4)c4ccc([nH]4)c(-c4ccc(C(=O)O)cc4)c4ccc([nH]4)c(-c4ccc(C(=O)O)cc4)c4nc2C=C4)C=C3)cc1`, for which the results for the IC50 in experiment [1] and in experiment [2] were 1 µM and 0.9 µM, respectively.
Molecule `CC(C)(C)OC(=O)n1ccc2c(CCOc3cccc(-c4cccc(-c5nnn[nH]5)c4)c3)cccc21` had an inhibition in experiment [3] of 100%. The IC50 entry in experiment [4] is on record as “Not Active”.
In turn, `O=S(=O)(c1ccccc1)n1ccc2c(CCOc3cccc(-c4cccc(-c5nnn[nH]5)c4)c3)cccc21` returned an inhibition in experiment [3] of 100%. Further, the IC50 in experiment [4] (read-out: IC50) came to 32.9 µM.
As to `COC(=O)c1ccc(CCOc2cccc(-c3cccc(-c4nn[nH]n4)c3)c2)c2ccccc12`, the inhibition turned out to be 95% in experiment [3], 75% in experiment [5] and 67% in experiment [6]. Further, in experiment [4] (read-out: IC50), the IC50 was 31 µM.
